Measured values reported in patent US4537614A, “S-aryl and S-aliphatic diamidophosphorothiolates as urease inhibitors and urease inhibited urea based fertilizer compositions” (Allied Corporation, priority 1984, dated 1985).

Experiments:
urease [1] = experiment: Urease Inhibiting Efficacy Test in New York soil (Cazenovia silt loam, pH 7.2); type: biochemical; settings: 25° C., 3 days, remaining urea
Procedure: (§1) Representative compounds were tested to evaluate their efficacy in the inhibition of urease as compared to structurally similar compounds. The inhibition tests were run in a New York soil (Cazenovia silt loam, pH 7.2) and a Wisconsin soil (Plano silt loam, pH 5.4). […] The bottle was capped with perforated aluminum foil and incubated at 25° C. for 3 days prior to extraction with 100 mL of a 2M potassium chloride solution containing 0.5 mg of phenylmercuric acetate. The extracts were then analyzed for remaining urea using an autoanalyzer. Percent inhibition was calculated as
(§2) % Inhibition=[1-(A-B/A-C)]×100%
(§3) where A is urea recovered from unincubated sample (urea added to soil and immediately extracted); B is urea recovered from inhibited sample; and C is urea recovered from the control (uninhibited sample).

urease [2] = experiment: Urease Inhibiting Efficacy Test in Wisconsin soil (Plano silt loam, pH 5.4); type: biochemical; settings: 25° C., 3 days, remaining urea
Procedure: as §1, §2, §3

urease [3] = experiment: Efficacy as urease inhibitor, general statement (long term residual activity); settings: primarily because of relatively long term residual activity
[4] = 800 micrograms test compound + 42.8 mg urea per 20 g air dry soil
[5] = 200 micrograms test compound (footnote *) + 42.8 mg urea per 20 g air dry soil

Structure (SMILES)	% Inhibition Cazenovia Soil (urease [1]; [4]) [%]	% Inhibition Wisconsin Soil (urease [2]; [5]) [%]	efficacy among the especially efficacious compounds (urease [3])	% Inhibition Cazenovia Soil (urease [1]; [5]) [%]	% Inhibition Wisconsin Soil (urease [2]; [4]) [%]
COP(N)(N)=O [Comp. Ex. 1, reference compound]	34	–	–	–	–
CCCOP(N)(N)=O [Comp. Ex. 2, reference compound]	15	–	–	–	–
CCCCSP(N)(N)=O [Experiment 2, S-(n-Butyl) Diamidophosphorothiolate]	–	82	most efficacious	74	–
CCC(C)SP(N)(N)=O (stereo not drawn) [Experiment 3, S-(2-Butyl) Diamidophosphorothiolate]	–	84	–	74	–
CC(C)CSP(N)(N)=O [Experiment 4, S-(iso-Butyl) Diamidophosphorothiolate]	–	83	most efficacious	80	–
CCCCCCSP(N)(N)=O [Experiment 5, S-(n-Hexyl) Diamidophosphorothiolate]	–	66	most efficacious	52	–
NP(N)(=O)SC1CCCCC1 [Experiment 6, S-(Cyclohexyl) Diamidophosphorothiolate]	–	58	–	66	–
CSP(N)(N)=O [S-Methyl Diamidophosphorothiolate]	93	–	–	–	93
